# Legend:
# [1] = system: pSUPER-CFP-CONTROL transfected HeLa cells; assay: Clonogenic survival, control transfected HeLa cells; format: cell-based, human; conditions: constant exposure 12-14 days, read-out: SF50 (the source's name)
# Source text: (§1) Clonogenic survival curves of transfected HeLa cells under constant exposure to a range of concentrations of PARP inhibitor (KU0058684) for 12-14 days. […] SF50 for pSUPER-CFP-CONTROL transfected cells is >1×10^−5 M and is 1×10^−6 M for pSUPER-CFP-17/19/23 transfected cells.
# (§2) HeLa cells were transfected using FuGene (Roche, USA) according to the manufacturers instructions. For clonogenic survival assays, cells were co-transfected in 6 well plates with pSUPER and a vector expressing blasticidin resistance (pEF-Bsd, Invitrogen, USA) at a ratio of 10:1 (pSUPER: pEF-Bsd). Twenty-four hours after transfection, cells were plated into replica plates and this was followed by treatment with PARP inhibitors and blasticidin 48 hours post transfection.
# PARP-2 = PARP-2 (Homo sapiens, UniProt Q9UGN5); assay: Inhibition of poly(ADP-ribose) polymerase activity of PARP-2; format: biochemical
# [2] = system: RAD51 siRNA transfected HeLa cells; assay: Clonogenic survival, HeLa cells with RAD51 RNAi silencing; format: cell-based, human; conditions: pSUPER-CFP-17/19/23 transfected HeLa cells, constant exposure 12-14 days; read-out: SF50 (the source's name)
# Source text: as §1, §2
# [3] = system: chinese hamster ovary cells deficient in Brca2 (V-C8); assay: Clonogenic assay, Brca2 deficient chinese hamster ovary cells (V-C8) vs Brca2-complemented derivative; format: cell-based; conditions: Brca2 deficient CHO cells vs complemented derivative
# Source text: VC8 cells and the mouse Brca2 BAC complemented derivatives were as described in M. Kraakman-van der Zwet et al., Mol Cell Biol 22, 669-79 (2002)). ES cells defective in Brca2 function have been described previously (Tutt et al. (2002) EMBO Rep 3, 255-60). The construction of ES cells defective in Brca1 will be described elsewhere but have previously been validated (Foray et al. (2003) Embo J 22 2860-71). HBL100 cells were transfected with a pSUPER BRCA1 RNAi plasmid and selected with geneticin for 3 weeks. Clones were selected on the basis of their BRCA1 expression, as analysed by Northern blot.
# (§3) For measurement of sensitivity to chemical inhibitors, cell cultures e.g. ES cells or mouse embryonic fibroblasts, in exponential growth were trypsinised and seeded at various densities in 6-well plates onto confluent monolayer of Mitomycin C (MMC) inactivated mouse embryonic fibroblasts and, where appropriate, treated with inhibitors after 18 h. For continuous exposure, cells were re-fed every 4 days with fresh medium and inhibitor. For timed exposures, inhibitor was added for the specified period then cells were washed and re-fed with fresh medium. After 10-14 days, cells were washed with PBS, fixed in methanol and stained with crystal violet. Colonies containing greater than approximately 50 cells were counted. Experiments were performed at least three times in triplicate.
# Brca1 deficient ES cells = assay: Clonogenic assay, continuous exposure, Brca1 deficient ES cells; format: cell-based, mouse
# Method: as §3
# MCF7-3.23 cells = assay: Clonal survival, BRCA1 silenced MCF7-3.23 cells; format: cell-based, human
# Source text: Log concentration of inhibitor is plotted against log surviving fraction of cells.
# The MCF7 scrambled and MCF7-3.23 cell lines were generated by stable transfection of MCF7 mammary adenocarcinoma cells with gene specific pSUPER constructs. Gene specific pSUPER constructs were generated expressing the following RNAi target sequences: (i) human BRCA1 (SEQ ID NO:3) 5r-[…]-3′ (ii) scrambled control 5′-(SEQ ID NO:4) […]-3′. A 1.8 kb fragment containing the human EF1a promoter and the blasticidin resistance gene (bsd) was subcloned from pEFBsd (Invitrogen) into the SapI site of the resultant pSUPER constructs, generated pSUPER-Bsd-BRCA1 and pSUPER-Bsd-scrambled. MCF7 cells were transfected with these plasmids using FuGene6 (Roche) according to the manufacturers instructions. After selection in blasticidin, resistant clones were assessed by real time PCR for silencing of BRCA1 mRNA (Egawa et al Oncology. 2001; 61(4): 293-8; Egawa et al Int J. Cancer. 2001 Jul. 20; 95(4):255-9). Clones with reduced levels of BRCA1 mRNA were cultured (under blasticidin selection) over 8 passages and the real-time assay repeated.
# vault PARP = vault PARP (Homo sapiens, UniProt Q9UKK3); assay: Selectivity: vault PARP inhibition; format: biochemical; conditions: at concentrations up to 1 μM
# wild-type ES cells = assay: Rad51 focus formation, wild-type ES cells; format: cell-based, mouse; conditions: 48 hours
# Method: ES cells were cultured for 48 h in various concentrations of PARP inhibitor fixed in 4% paraformaldehyde in PBS and permeabilised with 0.2% Triton X100 in PBS. Cells were stained with a 1:100 dilution of rabbit anti-Rad51 ployclonal antibody (Ab 551922, BD-Pharmingen, Oxford, UK). After washing, the primary antibody was visualised with Alexa Fluor-555 goat anti-rabbit IgG (Alexa) and nuclei with TO-PRO-3 iodide (Molecular Probes). Rad51 foci and γH2Ax foci were visualised with and quantified using a Leica TCS-SP2 confocal microscope.
# Wild-type, and Brca1 and Brca2 defective ES cells were exposed to differing concentrations of KU0058684 for 48 hours. Cells were then fixed and stained for RAD51 foci as described by Tarsounas (Tarsounas M et al Oncogene. 2003 22(8): 1115-23).
# [4] = system: Brca2 deficient ES cell derived tumours; assay: ES cell xenografts (teratomas) in athymic BALB/c nude mice; format: in vivo, mouse; conditions: 15 mg/kg intraperitoneal, two doses per day
# Method: ES cell derived tumours (teratomas) were produced by subcutaneous injection of […] ES cells into 6-8 week athymic BALB/c nude (nu/nu) mice. Twenty mice were injected with Brca2 deficient ES cells and an identical cohort with isogenic wild type cells. Two days after cell injection, treatment with KU0058684 or vehicle was initiated. For three consecutive days, two Intraperitoneal doses of KU0058684 (or vehicle) were administered, six hour apart, each at a dosage of 15 mg/kg animal. This treatment was then stopped for five days and then reinitiated (as before) for another three consecutive days. Growth of tumours was monitored from a minimum volume of 0.3 cm^3. The data in FIG. 16 represents two separate experiments involving in total 40 animals.
# HeLa cells = assay: Cell viability, HeLa cells exposed to PARP inhibitor and caffeine; conditions: 1 mM Caffeine plus KU0058684
# Source text: Error bars represent standard errors of the mean.
# Caffiene was used to determine whether loss of ATM and ATR dependent DNA signalling pathways would induce sensitivity to PARP inhibition.
# PARP-3 = PARP-3 (Homo sapiens, UniProt Q9Y6F1); assay: Selectivity: PARP-3 inhibition; format: biochemical; conditions: at concentrations up to 1 μM
# Chain of PARP-3 (Q9Y6F1 whole entry, species assumed): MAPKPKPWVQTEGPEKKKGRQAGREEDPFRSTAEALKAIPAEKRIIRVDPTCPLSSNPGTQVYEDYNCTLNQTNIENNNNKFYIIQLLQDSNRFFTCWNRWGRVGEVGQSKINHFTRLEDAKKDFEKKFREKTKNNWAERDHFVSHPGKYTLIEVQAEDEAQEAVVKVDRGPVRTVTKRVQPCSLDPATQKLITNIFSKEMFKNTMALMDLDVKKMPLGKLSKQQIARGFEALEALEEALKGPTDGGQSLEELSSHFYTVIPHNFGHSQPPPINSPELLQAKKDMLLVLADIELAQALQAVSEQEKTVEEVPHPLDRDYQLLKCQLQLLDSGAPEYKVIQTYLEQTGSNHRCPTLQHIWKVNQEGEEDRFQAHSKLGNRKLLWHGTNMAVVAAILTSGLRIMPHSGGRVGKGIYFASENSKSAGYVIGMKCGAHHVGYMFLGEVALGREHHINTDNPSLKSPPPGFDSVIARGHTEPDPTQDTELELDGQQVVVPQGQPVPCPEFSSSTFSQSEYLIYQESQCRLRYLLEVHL
# Chain of vault PARP (Q9UKK3 whole entry): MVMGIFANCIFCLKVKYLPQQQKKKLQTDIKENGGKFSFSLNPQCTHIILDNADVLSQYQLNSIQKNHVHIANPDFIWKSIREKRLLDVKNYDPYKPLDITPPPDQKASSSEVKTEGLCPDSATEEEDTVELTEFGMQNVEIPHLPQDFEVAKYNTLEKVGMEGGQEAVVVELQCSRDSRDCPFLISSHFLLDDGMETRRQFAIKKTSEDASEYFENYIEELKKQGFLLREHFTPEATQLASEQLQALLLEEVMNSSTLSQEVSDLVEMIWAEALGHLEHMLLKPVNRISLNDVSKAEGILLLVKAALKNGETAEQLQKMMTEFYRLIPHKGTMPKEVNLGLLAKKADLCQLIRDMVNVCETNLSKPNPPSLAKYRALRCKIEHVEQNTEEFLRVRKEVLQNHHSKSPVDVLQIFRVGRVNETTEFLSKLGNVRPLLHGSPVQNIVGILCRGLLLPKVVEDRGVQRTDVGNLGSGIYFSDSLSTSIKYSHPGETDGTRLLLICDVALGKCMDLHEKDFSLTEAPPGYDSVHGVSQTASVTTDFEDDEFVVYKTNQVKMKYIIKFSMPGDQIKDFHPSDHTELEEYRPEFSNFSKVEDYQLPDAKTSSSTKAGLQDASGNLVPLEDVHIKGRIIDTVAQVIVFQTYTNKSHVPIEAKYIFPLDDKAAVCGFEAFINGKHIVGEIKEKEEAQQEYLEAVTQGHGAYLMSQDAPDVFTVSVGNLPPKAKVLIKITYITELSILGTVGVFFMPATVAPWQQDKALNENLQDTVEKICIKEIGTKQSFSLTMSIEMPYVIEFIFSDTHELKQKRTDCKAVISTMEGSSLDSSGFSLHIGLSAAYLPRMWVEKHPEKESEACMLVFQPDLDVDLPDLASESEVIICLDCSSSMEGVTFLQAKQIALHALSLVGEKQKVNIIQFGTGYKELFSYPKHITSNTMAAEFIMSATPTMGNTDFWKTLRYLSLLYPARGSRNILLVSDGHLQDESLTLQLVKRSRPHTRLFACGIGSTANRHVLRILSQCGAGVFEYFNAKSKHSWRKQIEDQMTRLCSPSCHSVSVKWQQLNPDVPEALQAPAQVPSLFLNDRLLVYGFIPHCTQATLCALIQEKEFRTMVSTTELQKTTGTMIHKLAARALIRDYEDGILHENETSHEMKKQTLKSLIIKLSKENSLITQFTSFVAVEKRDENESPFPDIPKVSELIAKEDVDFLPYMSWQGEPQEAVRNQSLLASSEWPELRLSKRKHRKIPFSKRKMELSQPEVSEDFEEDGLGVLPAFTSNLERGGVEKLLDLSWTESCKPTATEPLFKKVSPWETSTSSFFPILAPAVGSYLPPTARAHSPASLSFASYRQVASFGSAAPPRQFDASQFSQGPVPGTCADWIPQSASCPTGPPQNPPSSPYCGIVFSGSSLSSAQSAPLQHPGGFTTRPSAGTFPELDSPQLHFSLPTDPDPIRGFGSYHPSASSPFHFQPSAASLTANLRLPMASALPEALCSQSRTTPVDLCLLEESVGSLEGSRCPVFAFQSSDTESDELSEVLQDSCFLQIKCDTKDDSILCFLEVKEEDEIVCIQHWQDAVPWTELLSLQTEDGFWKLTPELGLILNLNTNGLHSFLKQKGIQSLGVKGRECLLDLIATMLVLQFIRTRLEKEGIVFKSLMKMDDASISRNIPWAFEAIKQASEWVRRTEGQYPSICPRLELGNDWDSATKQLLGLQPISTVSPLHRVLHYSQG
# Chain of PARP-2 (Q9UGN5 whole entry): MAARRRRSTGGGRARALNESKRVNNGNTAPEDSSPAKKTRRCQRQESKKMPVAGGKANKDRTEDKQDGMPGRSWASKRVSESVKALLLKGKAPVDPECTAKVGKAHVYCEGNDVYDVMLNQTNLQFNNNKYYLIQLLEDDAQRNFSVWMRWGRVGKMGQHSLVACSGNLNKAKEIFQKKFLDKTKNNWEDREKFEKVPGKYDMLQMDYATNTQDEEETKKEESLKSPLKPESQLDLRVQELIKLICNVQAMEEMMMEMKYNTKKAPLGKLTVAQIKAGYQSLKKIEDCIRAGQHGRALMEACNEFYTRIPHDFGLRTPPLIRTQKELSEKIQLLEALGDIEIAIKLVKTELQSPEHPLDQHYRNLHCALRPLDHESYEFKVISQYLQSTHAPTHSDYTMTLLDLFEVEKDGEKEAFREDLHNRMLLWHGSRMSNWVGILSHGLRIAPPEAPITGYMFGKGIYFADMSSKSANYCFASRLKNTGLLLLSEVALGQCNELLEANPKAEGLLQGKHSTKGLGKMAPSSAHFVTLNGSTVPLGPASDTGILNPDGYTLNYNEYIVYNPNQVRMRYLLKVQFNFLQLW
smiles,measurement,setting,value
O=C1CCC(=O)N1c1cc(Cc2n[nH]c(=O)c3ccccc23)ccc1F [KU0058684],IC50,[1],> 10 µM
same,inhibition of poly(ADP-ribose) polymerase activity of PARP-1 and PARP-2,PARP-2,potent and specific inhibitors
same,IC50,[2],1 µM
same,enhanced sensitivity compared to a Brca2-complemented derivative,[3],greater than 1000 fold
same,IC50,"Brca1 deficient ES cells; Brca1 deficient ES cells, continuous exposure, read-out: SF50 (dosage at which 50% of cells survived)",0.035 µM
same,enhanced sensitivity compared to wild-type,Brca1 deficient ES cells; Brca1 mutant cells vs wild-type,57 fold
same,sensitivity of Brca1 deficient cells compared to otherwise isogenic cells,Brca1 deficient ES cells; clonogenic assay,extremely sensitive
same,sensitivity of MCF7-3.23 cells compared with MCF7-scrambled cells,MCF7-3.23 cells,significantly more sensitive
same,sensitivity (clonal survival),"MCF7-3.23 cells; MCF7-3.23, continuous exposure 12-14 days",both cell lines were sensitive
same,inhibition of vault PARP,vault PARP,do not inhibit
same,Rad51 foci formation,wild-type ES cells,caused Rad51 foci formation in a dose-dependent fashion
same,growth of Brca2 deficient tumours relative to wild-type tumours,[4],dramatically reduce the growth
same,sensitivity of HeLa cells to PARP inhibitor with caffeine,HeLa cells,increased sensitivity
same,inhibition of PARP-3,PARP-3,do not inhibit

# — US8143241B2, “DNA damage repair inhibitors for treatment of cancer” (Kudos Pharmaceuticals Limited, priority 2003, dated 2012)
